Source: patent publication US5256690A, “Method for treating and controlling the symptoms of neurodegenerative disease and neuropsychopharmacological disorders” (Carter-Wallace, Inc., priority 1992, dated 1993)

What was measured:
[1] = molecular target: T1, strychnine-insensitive glycine receptors (Rattus norvegicus, UniProt P35439); settings: value used in the K calculation; read-out: dissociation constant KD of [3H]5,7DCKA; cited from earlier work
T1 construct: Brains are immediately removed and forebrains dissected; from tissue; host or cells: rat forebrain membranes (P2/P3 pellet, washed, frozen), male Sprague-Dawley

hippocampal slices = test: Hippocampal slice hypoxia model (evoked potential recovery); type: cell-based, rat; settings: for evoked potential (population spike) recovery: after one hour recovery
Description: Sprague-Dawley rats are briefly anesthetized with Halothane and then decapitated. The brain is removed and the hippocampus dissected. Transverse hippocampal brain slices of 475 microns are sectioned with a McIlwain tissue chopper. Slices are then incubated in a temperature controlled chamber of 34 degrees centigrade while being perfused with an artificial cerebral spinal fluid (NaCl 126 mM; KCl, 4; KH2 PO4, 1.4; MgSO4, 1.3; CaCl2, 2.4; NaHCO3, 26 and glucose, 4) saturated with 95% O2 and 5% CO2.
After an initial one hour equilibration period, the slices are tested for electrophysiological function. Electrical stimulation is given in the region of the CA3 collaterals with a bipolar twisted wire electrode. Evoked responses are recorded extracellularly in the pyramidal cell layer of the CA1 region. Stimulation is given for a duration of 40 microseconds in square wave pulses. The peak-to-peak amplitude of the resultant evoked potential response is then monitored.
Hippocampal slices from one animal are placed in two chambers. One chamber is used as a control and receives standard artificial cerebral spinal fluid (ACSF) while the second receives felbamate. In each chamber, one slice is stimulated every 30 seconds to monitor evoked potential response. Other slices in the chamber are not continuously stimulated. In these latter slices, designated as non-stimulated, the evoked potential response is assessed only at the beginning and end of the experiment. Only slices with initial evoked potentials of 3 mV or greater amplitude are included for testing.
The experimental chamber is perfused with oxygenated artificial cerebral spinal fluid (ACSF) containing felbamate for 30 minutes before the initiation of hypoxic conditions. The control chamber continues to receive oxygenated ACSF without felbamate during this period. Hypoxic conditions are then initiated simultaneously in both chambers by changing to perfusing media saturated with 95% N2 and 5% CO2. The experimental chamber receives nitrogenated ACSF with felbamate while the control chamber receives nitrogenated ACSF without felbamate.
The duration of hypoxic exposure for both chambers is determined by the disappearance of the hypoxic injury potential (HIP) in the control stimulated slice. This potential appears during hypoxia after the disappearance of the original evoked potential. Although hippocampal slices can vary in their temporal response to hypoxia, the HIP is a reliable marker of permanent hypoxic injury. For this reason, the disappearance of the HIP is chosen to determine length of hypoxic exposure. Hypoxia is continued in both chambers for 5 minutes beyond the disappearance of the HIP in the stimulated control slice.
After hypoxic exposure, slices are monitored through one hour of recovery with oxygenated ACSF. The felbamate chamber receives oxygenated ACSF with felbamate for the first 15 minutes of this recovery and then standard oxygenated ACSF for the remaining 45 minutes of recovery. After a one-hour recovery period, the percentage of evoked potential amplitude recovery is assessed in both stimulated and non-stimulated slices. This percentage is calculated as the evoked potential amplitude after recovery divided by the evoked potential amplitude prior to hypoxic exposure.
This protective action is assessed by several measures. First, evoked potential recovery is assessed in both stimulated and non-stimulated slices. Additionally, hypoxic protection is calculated for both stimulated and non-stimulated slices. This measure is calculated as the damage seen in control slices minus the damage seen in experimental (felbamate) slices divided by the damage seen in control slices. For these purposes damage is defined as 100 percent minus percent recovery. The determination of hypoxic protection helps take into account any survival seen in control slices. Lastly, counts of total surviving slices were made. […]

metrazol = settings: rats; cited from earlier work
[2] = molecular target: T1, strychnine-insensitive glycine receptors; test: biochemical; type: binding
Description: Male Sprague-Dawley rats weighing 150-200 g are housed under a 12-hour light/dark cycle with access to food and water ad libitum. Animals are anesthetized with CO2 and sacrificed by decapitation. Brains are immediately removed and forebrains dissected, weighed and placed in 10 volumes (original wet weight volume) of 5 mM Hepes/4.5 mM Tris buffer (HTS; pH 7.8) containing 0.32 M sucrose. Tissue preparation is performed at about 4° C unless otherwise stated. Tissues are homogenized using a Brinkmann Polytron (setting 6, 30 seconds), diluted to 50 volumes in HTS-sucrose, and centrifuged at 1,000 xg for 10 minutes. The resultant pellet (P1) is discarded and supernatant centrifuged at 20,000 xg for 20 minutes. The resultant pellet (P2) is resuspended in HTS and centrifuged at 8,000 xg for 20 minutes. The supernatant and outer buffy coat (remaining pellet core discarded) is centrifuged at 20,000 xg for 20 minutes. The resultant pellet (P2/P3) is resuspended in HTS containing 1 mM EDTA and centrifuged at 20,000 xg for 20 minutes. The P2/P3 pellet is resuspended in HTS and the "washing" procedure is repeated two more times. The P2/P3 pellet is then resuspended in 5 volumes of HTS, frozen on dry-ice and stored at -80° C. for at least 72 hours prior to binding assay.
At the time of the assay, the appropriate amount of tissue is thawed and resuspended in 50 mM Hepes-KOH buffer (pH 8.0 at 4° C.) and "washed" twice by resuspension and centrifugation at 20,000 xg for 20 minutes. The binding of [^3 H]5,7DCKA is performed as described by Baron et al. Env. J. Pharmacol 206: 149-154 (1991). Assays are performed at 4° C. using quadruplicate samples in a total volume/tube of 1-ml consisting of: 500 ul membrane suspension (200-300 ug protein/assay tube) in 50 mM Hepes-KOH buffer (pH 8.0 at 4° C.), 100 ul [^3 H]5,7DCKA solution (19-21 nM; specific activity 18.2 Ci/mmol), 100 ul drug or buffer, and 300 ul buffer. […] Felbamate, solutions of 10 mM and 100 mM, are dissolved in 40-50% and 100% DMSO, respectively, and serial dilutions are performed. Binding reactions are initiated by adding the tissue homogenate and terminated after a 15 minute incubation period by rapid filtration through Brandel GF/B filters using a Brandel M-24 cell harvester. This filtration is followed by two 5-ml rinses with ice-cold buffer. Radioactivity is monitored in a Beckman LS 5801 liquid scintillation counter.
Displacement curves and IC50 values were analyzed using Graphpad (ISI Software, Philadelphia, Pa.).

MES = settings: rats; cited from earlier work
[3] = Preclinical margin of safety (protective index); type: in vivo; settings: preclinical profile

O=C(O)c1cc(O)c2c(Cl)cc(Cl)cc2n1 [[^3 H]5,7DCKA, [^3 H]5,7-dichlorokynurenic acid]
Kd [1]: 69 nM

NC(=O)OCC(COC(N)=O)c1ccccc1 [felbamate, 2-phenyl-1,3-propanediol dicarbamate]
neuroprotection against hypoxia (hippocampal slices; 380 uM, 840 uM, 1,300 uM and 1,700 uM): Significant neuroprotection
counts of surviving stimulated slices (hippocampal slices; 1,300 and 1,700 uM, survival criterion 3 mV): substantial felbamate protection
toxicity for electrophysiological function (hippocampal slices; high concentration of felbamate): no evidence of toxicity
toxicity (permanent evoked potential loss) (hippocampal slices; pre-hypoxic incubation, felbamate perfusion): no evidence of toxicity
evoked potential (population spike) recovery (hippocampal slices; stimulated slices, 4 uM): 2%
evoked potential (population spike) recovery (hippocampal slices; stimulated slices, 190 uM): 6%
evoked potential (population spike) recovery (hippocampal slices; stimulated slices, 380 uM): 13%
evoked potential (population spike) recovery (hippocampal slices; stimulated slices, 840 uM): 46%
evoked potential (population spike) recovery (hippocampal slices; stimulated slices, 1,300 uM): 95%
delay of appearance of the hypoxic injury potential (HIP) (hippocampal slices; stimulated slices, 1,700 uM): 14.5 min
evoked potential (population spike) recovery (hippocampal slices; stimulated slices, 1,700 uM): 96%
effect on disappearance of the evoked potential (hippocampal slices; stimulated slices, 1,700 uM, hypoxia): did not affect
counts of surviving non-stimulated slices (hippocampal slices; survival criterion 3 mV): substantial protection
anticonvulsant ED50 for metrazol (metrazol): 238 mg/kg
IC50 ([2]; IC50, inhibition of [3H]5,7DCKA, 10 uM-10 mM, combined data of three experiments on a single graph, FIG. 2): 374 µM
IC50 ([2]; IC50 value (mean +/- SEM), mean of the felbamate displacement experiments): 477 ± 49 µM
Ki ([2]; K estimate for inhibition of [3H]5,7DCKA (mean +/- SEM), calculated, mean of experiments, FIG. 2): 368 ± 37 µM
Ki ([2]; K estimate for inhibition of [3H]5,7DCKA, calculated from IC50 of combined data): 289 µM
Hill slope ([2]; combined displacement data, FIG. 2): -0.93
mode of inhibition of [3H]5,7DCKA binding ([2]; rat forebrain membranes, FIG. 2): competitively inhibits
anticonvulsant ED50 for MES (MES): 46 mg/kg
protective index [3]: 16.9-19.1
